Structures are written as SMILES. Several values for one entry are separate records, joined by “and”; a condition that tells them apart may be missing. Equal entries are not always repeated. Toxic doses and inconclusive results are not listed.

The subject of this assay is B6C3F1 mice, Lewis lung carcinoma iv, survival T/C. Description: NCI In Vivo Anticancer Drug Screen. Data for tumor model Lewis Lung Carcinoma (intravenous) in B6C3F1 mice. Conditions: endpoint: median survival time, higher = longer survival. In outline:
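Tumors were transplanted into mice, which were then dosed with compound or vehicle. Survival was recorded in each group, and the treated figure was divided by the control figure.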

[1] abbreviates: dose: 1.25 mg/kg/injection, schedule: Q01DX009 (ip), vehicle: water.
Setting [2] is: dose: 2.5 mg/kg/injection, schedule: Q01DX009 (ip), vehicle: water.
Where [3] appears, read: dose: 5.0 mg/kg/injection, schedule: Q01DX009 (ip), vehicle: water.
The mark [4] stands for this setting: dose: 12.5 mg/kg/injection, schedule: Q01DX009 (ip), vehicle: Klucel (hydroxypropylcellulose) (HPC).
The mark [5] stands for this setting: dose: 25.0 mg/kg/injection, schedule: Q01DX009 (ip), vehicle: Klucel (hydroxypropylcellulose) (HPC).
[6] abbreviates: dose: 50.0 mg/kg/injection, schedule: Q01DX009 (ip), vehicle: Klucel (hydroxypropylcellulose) (HPC).
Setting [7] is: dose: 100.0 mg/kg/injection, schedule: Q01DX009 (ip), vehicle: Klucel (hydroxypropylcellulose) (HPC).
[8] abbreviates: dose: 6.25 mg/kg/injection, schedule: Q01DX009 (ip), vehicle: water.
The mark [9] stands for this setting: dose: 12.5 mg/kg/injection, schedule: Q01DX009 (ip), vehicle: saline.
[10] abbreviates: dose: 25.0 mg/kg/injection, schedule: Q01DX009 (ip), vehicle: saline.
The mark [11] stands for this setting: dose: 50.0 mg/kg/injection, schedule: Q01DX009 (ip), vehicle: saline.
Setting [12] is: dose: 100.0 mg/kg/injection, schedule: Q01DX009 (ip), vehicle: saline.
Setting [13] is: dose: 200.0 mg/kg/injection, schedule: Q01DX009 (ip), vehicle: saline.
The mark [14] stands for this setting: dose: 6.25 mg/kg/injection, schedule: Q01DX009 (ip), vehicle: Klucel (hydroxypropylcellulose) (HPC).

As to `CC1/C=C/C=C/CC/C=C/C=C/C=C/C=C/C(OC2OC(C)C(O)C(N)C2O)CC2OC(CC(O)C(O)CCC(O)CC(O)CC(O)CC(=O)OC(C)C(C)C1O)CC(O)C2C(=O)O` (stereo not given), the T/C runs as follows: (dose: 6.25 mg/kg/injection, schedule: Q01DX009 (ip), vehicle: saline with Tween-80) 103 % of control; (dose: 12.5 mg/kg/injection, schedule: Q01DX009 (ip), vehicle: saline with Tween-80) 103 % of control; (dose: 25.0 mg/kg/injection, schedule: Q01DX009 (ip), vehicle: saline with Tween-80) 98 % of control; (dose: 50.0 mg/kg/injection, schedule: Q01DX009 (ip), vehicle: saline with Tween-80) 101 % of control.
Regarding `COC(=O)NC1C(C)OC(OC2C/C=C(/C)C3C=CC4C(OC5CC(OC6CCC(OC7CC(O)C(OC8CCC(O)C(C)O8)C(C)O7)C(C)O6)C(OC(C)=O)C(C)O5)C(C)CC(C)C4C3(C)/C(O)=C3/C(=O)OC4(CC(C=O)=CC(O)C4/C=C\2C)C3=O)CC1(C)[N+](=O)[O-]` (stereo not given), the T/C runs as follows: under setting [1], 108 % of control; under setting [2], 97 % of control; under setting [3], 98 % of control.
On to `O=P(O)(NCCCl)NCCCl`, for which the T/C reads like this: (dose: 25.0 mg/kg/injection, schedule: Q01DX001 (ip), vehicle: saline with Tween-80) 108 % of control; (dose: 100.0 mg/kg/injection, schedule: Q01DX001 (ip), vehicle: saline with Tween-80) 184 % of control and 226 % of control and 312 % of control; (dose: 200.0 mg/kg/injection, schedule: Q01DX001 (ip), vehicle: saline with Tween-80) 281 % of control.
Take `C[Si](C)(C)OSc1ccccc1[N+](=O)[O-]`: the T/C runs as follows: under setting [4], 120 % of control; under setting [5], 110 % of control; under setting [6], 102 % of control; under setting [7], 102 % of control; (dose: 200.0 mg/kg/injection, schedule: Q01DX009 (ip), vehicle: Klucel (hydroxypropylcellulose) (HPC)) 102 % of control; (dose: 400.0 mg/kg/injection, schedule: Q01DX009 (ip), vehicle: Klucel (hydroxypropylcellulose) (HPC)) 104 % of control.
For the molecule `CCC12C[N+]3([O-])CCc4c([nH]c5ccccc45)C(C(=O)OC)(c4cc5c(cc4OC)N(C)C4C(O)(C(=O)OC)C(OC(C)=O)C6(CC)C=CCN7CCC54C76)CC(C3)C1O2` (stereo not given), the T/C by setting is: (dose: 0.62 mg/kg/injection, schedule: Q01DX009 (ip), vehicle: water) 93 % of control; under setting [1], 94 % of control; under setting [2], 97 % of control; under setting [3], 95 % of control; (dose: 10.0 mg/kg/injection, schedule: Q01DX009 (ip), vehicle: water) 98 % of control; (dose: 20.0 mg/kg/injection, schedule: Q01DX009 (ip), vehicle: water) 101 % of control.
With `CN1N=C(N)c2cn(C3OC(COP(=O)(O)O)C(O)C3O)c3ncnc1c23` (stereo not given), under setting [8], the T/C was 98 % of control.
For the molecule `NC(Cn1ccc(=O)c(O)c1)C(=O)O` (stereo not given), the T/C is, setting by setting: under setting [9], 94 % of control; under setting [10], 98 % of control; under setting [11], 102 % of control; under setting [12], 94 % of control; under setting [13], 94 % of control.
Take `CC1=CC2C(O)(CC(CO)=CC3C4C(C)(C)C4(OC(=O)c4ccccc4)C(OC(=O)c4ccccc4)C(C)C32O)C1=O` (stereo not given): the T/C is, setting by setting: (dose: 0.12 mg/kg/injection, schedule: Q01DX009 (ip), vehicle: saline with Tween-80) 103 % of control; (dose: 0.25 mg/kg/injection, schedule: Q01DX009 (ip), vehicle: saline with Tween-80) 107 % of control; (dose: 0.5 mg/kg/injection, schedule: Q01DX009 (ip), vehicle: saline with Tween-80) 95 % of control; (dose: 1.0 mg/kg/injection, schedule: Q01DX009 (ip), vehicle: saline with Tween-80) 108 % of control; (dose: 2.0 mg/kg/injection, schedule: Q01DX009 (ip), vehicle: saline with Tween-80) 99 % of control.
Consider `O=NN(CCCl)C(=O)Oc1cc(Cl)c(Cl)cc1Cl`, for which the T/C reads like this: (dose: 11.56 mg/kg/injection, schedule: Q01DX009 (ip), vehicle: Klucel (hydroxypropylcellulose) (HPC)) 105 % of control; (dose: 23.13 mg/kg/injection, schedule: Q01DX009 (ip), vehicle: Klucel (hydroxypropylcellulose) (HPC)) 101 % of control; (dose: 46.25 mg/kg/injection, schedule: Q01DX009 (ip), vehicle: Klucel (hydroxypropylcellulose) (HPC)) 122 % of control.
Consider `CCCC(=O)O`, for which the T/C is 123 % of control under setting [9]; 109 % of control under setting [10]; 114 % of control under setting [11]; 106 % of control under setting [12]; 98 % of control under setting [13].
For the molecule `CCCCCCCC(=O)O[C@H]1[C@H]2[C@@H](CC1(C)C)C(=O)[C@]13O[C@H]1C(=O)[C@]1(CO1)[C@]23C`, the T/C is 100 % of control (dose: 1.25 mg/kg/injection, schedule: Q01DX009 (ip), vehicle: saline with Tween-80); 97 % of control (dose: 2.5 mg/kg/injection, schedule: Q01DX009 (ip), vehicle: saline with Tween-80); 102 % of control (dose: 5.0 mg/kg/injection, schedule: Q01DX009 (ip), vehicle: saline with Tween-80); 88 % of control (dose: 10.0 mg/kg/injection, schedule: Q01DX009 (ip), vehicle: saline with Tween-80).
With `COC12C(COC(=O)NCCO)C3=C(C(=O)C(C)=C(N)C3=O)N1CC1NC12` (stereo not given), the T/C (dose: 3.12 mg/kg/injection, schedule: Q01DX009 (ip), vehicle: Klucel (hydroxypropylcellulose) (HPC)) was 111 % of control and the T/C under setting [14] is 102 % of control.
Take `O=C1NC(=O)NC(C(=O)O)N1`: the T/C is, setting by setting: (dose: 50.0 mg/kg/injection, schedule: Q01DX009 (ip), vehicle: DMSO) 101 % of control; (dose: 100.0 mg/kg/injection, schedule: Q01DX009 (ip), vehicle: DMSO) 105 % of control; (dose: 200.0 mg/kg/injection, schedule: Q01DX009 (ip), vehicle: DMSO) 98 % of control; (dose: 400.0 mg/kg/injection, schedule: Q01DX009 (ip), vehicle: DMSO) 110 % of control.
With `CCCCN(CCCC)C(Cl)=Nc1ccccc1`, the T/C was 106 % of control under setting [14]; 107 % of control under setting [4]; 94 % of control under setting [5]; 96 % of control under setting [6]; 98 % of control under setting [7].
As for `CN=C(N)N/N=C(\C)c1ccc2c(c1)Cc1cc(/C(C)=N/NC(N)=NC)ccc1-2`, the T/C (dose: 0.37 mg/kg/injection, schedule: Q01DX009 (ip), vehicle: saline with Tween-80) was 95 % of control; the T/C (dose: 0.75 mg/kg/injection, schedule: Q01DX009 (ip), vehicle: saline with Tween-80) was 97 % of control; the T/C (dose: 1.5 mg/kg/injection, schedule: Q01DX009 (ip), vehicle: saline with Tween-80) is 94 % of control; the T/C (dose: 3.0 mg/kg/injection, schedule: Q01DX009 (ip), vehicle: saline with Tween-80) was 100 % of control.
`NC(=O)c1csc(C2O[C@@H](COP(=O)(O)OP(=O)(O)OC[C@H]3OC(n4cnc5c(N)ncnc54)[C@H](O)[C@@H]3O)[C@H](O)[C@@H]2O)n1` (stereo not given in full): the T/C reads like this: (dose: 3.12 mg/kg/injection, schedule: Q01DX009 (ip), vehicle: water) 101 % of control; under setting [8], 98 % of control; (dose: 12.5 mg/kg/injection, schedule: Q01DX009 (ip), vehicle: water) 104 % of control; (dose: 25.0 mg/kg/injection, schedule: Q01DX009 (ip), vehicle: water) 120 % of control; (dose: 50.0 mg/kg/injection, schedule: Q01DX009 (ip), vehicle: water) 209 % of control.
Consider `O=C1OC(=O)[C@H]2[C@@H]1[C@H]1C=C[C@@H]2OC1=O`, for which the T/C reads like this: (dose: 12.5 mg/kg/injection, schedule: Q01DX009 (ip), vehicle: suspension in saline) 104 % of control; (dose: 25.0 mg/kg/injection, schedule: Q01DX009 (ip), vehicle: suspension in saline) 119 % of control; (dose: 50.0 mg/kg/injection, schedule: Q01DX009 (ip), vehicle: suspension in saline) 98 % of control; (dose: 100.0 mg/kg/injection, schedule: Q01DX009 (ip), vehicle: suspension in saline) 99 % of control; (dose: 200.0 mg/kg/injection, schedule: Q01DX009 (ip), vehicle: suspension in saline) 104 % of control.
